Values quoted from earlier work as cited in patent publication US11931418B2, “Methods of treating severe inflammation” (Ashvattha Therapeutics, Inc., priority 2020, dated 2024).

Test system: SARS-CoV-2 patients
Conditions: COVID-19 patients

For lopinavir-ritonavir, the clinical benefit is listed as “no benefit observed”.
